Experiments:
Format in all cases: biochemical
[1] = molecular target: T1, ADAMTS-5 recombinant protein (Homo sapiens (Human), UniProt Q9UNA0); assay: In vitro fluorescence (FRET-peptide) enzymatic assay of ADAMTS-5 activity; details: FRET peptide substrate 8 μM, 10 nM enzyme, 37° C. 3 hours
Protocol: (§1) A FRET (fluorescence resonance energy transfer) peptide was cleaved by recombinant ADAMTS-4 or ADAMTS-5 proteins into two separate fragments resulting in an increase of fluorescence signal which was quantified. The peptide was 5-FAM-[…](5-TAMRA)K-NH2, customized from ANASPEC. ADAMTS-4 recombinant protein (catalog #4307-AD) and ADAMTS-5 recombinant protein (catalog #2198-AD) were purchased from R&D Systems.
(§2) An assay buffer containing 50 mM HEPES pH 7.5, 100 mM NaCl, 5 mM CaCl2, 0.1% CHAPS and 5% Glycerol was prepared. A volume of 2.5 μl of compound in the assay buffer was dispensed to a 384-well plate, and 2.5 μl of ADAMTS-4 or ADAMTS-5 protein (final concentration in the reaction was 10 nM) was added. The compounds and proteins were pre-incubated at room temperature for 15 minutes. Then, 5 μl of substrate was added to each well. The final substrate concentrations for ADAMTS-4 and ADAMTS-5 were 15 μM and 8 μM, respectively. The fluorescence signal in each well was determined, after incubation at 37° C. for 3 hours, on a TECAN plate reader (Excitation, 490 nm; Emission, 520 nm).
(§3) The data was inputted into GraphPad Prism, and the IC50 values were calculated using function “log (inhibitor) vs. response—Variable slope (four parameters)”. (See Table 1)

[2] = molecular target: T1, ADAMTS-5 recombinant protein; assay: In vitro ELISA of ADAMTS-5 activity (Aggrecan-IGD enzymatic assay); details: aggrecan-IGD substrate, ARGSVIL-peptide ELISA, 37° C. 45 minutes
Protocol: In this assay, the enzymatic activity of recombinant ADAMTS-5 protein (catalog #2198-AD, R&D Systems) was assayed with a protein substrate, the aggrecan IGD protein. The aggrecan IGD protein is a polypeptide connecting human aggrecan globular domains 1 and 2 (T331-G458) expressed in E. Coli with a C-terminal His-tag (catalog #30411000, BIOTEZ). The enzymatic product ARGSVIL-peptide was detected using an ELISA kit from BioTEZ (catalog #30510111).
An assay buffer containing 50 mM HEPES pH 7.5, 100 mM NaCl, 5 mM CaCl2), 0.1% CHAPS and 5% Glycerol was prepared. Recombinant ADAMTS-5 protein was diluted to 0.3 nM in the assay buffer. Ten μl of […] and 10 μl of compound solution was transferred to each well of a 96-well plate and incubated at room temperature for 15 minutes. Substrate aggrecan-IGD was diluted to 100 nM with the assay buffer and 20 μl was added to each well. The plate was incubated at 37° C. for 45 minutes. After incubation, the newly generated epitope ARGSVIL-peptides were measured using the Aggrecanase Activity ELISA Assay Kit following the manufacturer's instructions. Then, 100 μl of stop solution was added and the absorbance of each well was read at 450 nm, using […] as reference on a TECAN plate reader.
A standard curve of the ELISA assay was generated in GraphPad Prism using Sigmoidal 4PL function and the corresponding peptide concentrations were calculated based on the standard curve. The IC50 values were calculated using function “log (inhibitor) vs. response—Variable slope (four parameters)”. (See Table 2).

[3] = molecular target: ADAMTS-4 recombinant protein (Homo sapiens (Human), UniProt O75173); assay: In vitro fluorescence (FRET-peptide) enzymatic assay of ADAMTS-4 activity; details: FRET peptide substrate 15 μM, 10 nM enzyme, 37° C. 3 hours
Chain of ADAMTS-4 recombinant protein (O75173 213-685): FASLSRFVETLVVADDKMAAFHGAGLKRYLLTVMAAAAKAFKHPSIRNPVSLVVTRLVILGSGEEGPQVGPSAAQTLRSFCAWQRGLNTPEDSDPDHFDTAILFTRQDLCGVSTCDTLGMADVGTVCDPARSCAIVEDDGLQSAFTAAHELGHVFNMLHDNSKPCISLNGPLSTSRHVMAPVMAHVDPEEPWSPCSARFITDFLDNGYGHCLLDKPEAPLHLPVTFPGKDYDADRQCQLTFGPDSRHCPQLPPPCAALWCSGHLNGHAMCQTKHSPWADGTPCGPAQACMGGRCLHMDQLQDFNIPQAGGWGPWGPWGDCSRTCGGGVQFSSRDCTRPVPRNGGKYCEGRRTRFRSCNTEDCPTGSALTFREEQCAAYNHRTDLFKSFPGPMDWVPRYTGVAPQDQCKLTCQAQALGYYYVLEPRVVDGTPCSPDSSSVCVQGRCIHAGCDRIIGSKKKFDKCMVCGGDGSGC
Protocol: as §1, §2, §3

T1 sequence (Q9UNA0 262-622): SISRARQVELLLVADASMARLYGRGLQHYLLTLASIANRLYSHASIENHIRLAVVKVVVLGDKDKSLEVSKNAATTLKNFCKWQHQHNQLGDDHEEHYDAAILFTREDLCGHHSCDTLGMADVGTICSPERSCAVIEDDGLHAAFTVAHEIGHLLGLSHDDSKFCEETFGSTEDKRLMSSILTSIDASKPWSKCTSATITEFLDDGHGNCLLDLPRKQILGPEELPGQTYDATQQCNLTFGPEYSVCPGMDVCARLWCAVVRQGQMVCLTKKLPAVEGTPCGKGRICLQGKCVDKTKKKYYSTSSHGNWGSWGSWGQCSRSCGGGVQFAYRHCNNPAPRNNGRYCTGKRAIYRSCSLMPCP

| Structure (SMILES) | IC50 [1] [nM] | IC50 [2] [nM] | IC50 [3] [nM] |
| --- | --- | --- | --- |
| CC(C[C@@]1(C2CC2)NC(=O)NC1=O)C(=O)N1Cc2cc(Cl)c(Cl)cc2C1 (mixture of isomers) [Example 34-2, (5S)-5-cyclopropyl-5-(3-(5,6-dichloroisoindolin-2-yl)-2-methyl-3-oxopropyl)imidazolidine-2,4-dione] | 9 | 17 | 7 |
| O=C1NC(=O)[C@](C[C@@H](CO)C(=O)N2Cc3cc(Cl)c(C(F)(F)F)cc3C2)(C2CC2)N1 (single isomer, unassigned) | 15 | – | 16 |
| C[C@H]1CN(C(=O)CC[C@@]2(C3CC3)NC(=O)NC2=O)CCc2ccc(F)cc21 (single isomer, unassigned) [Example 27] | 270 | – | 170 |
| C[C@@H]1CN(C(=O)CC[C@@]2(C3CC3)NC(=O)NC2=O)CCc2ccc(F)cc21 (single isomer, unassigned) [Example 28] | 48 | – | 47 |
| O=C1NC(=O)[C@](CCC(=O)N2CCc3cc(C(F)(F)F)ccc3C2)(C2CC2)N1 [Example 6, (S)-5-cyclopropyl-5-(3-oxo-3-(6-(trifluoromethyl)-3,4-dihydroisoquinolin-2 (1H)-yl)propyl)imidazolidine-2,4-dione] | 240 | 650 | 56 |
| O=C1NC(=O)[C@](CCC(=O)N2Cc3cccnc3C2)(C2CC2)N1 [Example 12, (S)-5-cyclopropyl-5-(3-(5,7-dihydro-6H-pyrrolo[3,4-b]pyridin-6-yl)-3-oxopropyl)imidazolidine-2,4-dione] | 1500 | – | 2300 |
| C[C@@H]1c2ccccc2CN1C(=O)CC[C@@]1(C2CC2)NC(=O)NC1=O [Example 14, (S)-5-cyclopropyl-5-(3-((R)-1-methylisoindolin-2-yl)-3-oxopropyl)imidazolidine-2,4-dione] | 1000 | – | 290 |
| COc1cccc2c1CCN(C(=O)CC[C@@]1(C3CC3)NC(=O)NC1=O)CC2 [Example 25, (S)-5-cyclopropyl-5-(3-(6-methoxy-1,2,4,5-tetrahydro-3H-benzo[d]azepin-3-yl)-3-oxopropyl)imidazolidine-2,4-dione] | 3600 | – | 5800 |
| CC1(C)CN(C(=O)CC[C@@]2(C3CC3)NC(=O)NC2=O)CCc2ccccc21 [Example 26, (S)-5-cyclopropyl-5-(3-(1,1-dimethyl-1,2,4,5-tetrahydro-3H-benzo[d]azepin-3-yl)-3-oxopropyl)imidazolidine-2,4-dione] | 5400 | – | 3800 |
| CCC(C[C@@]1(C2CC2)NC(=O)NC1=O)C(=O)N1Cc2ccc(C(F)(F)F)cc2C1 (stereo partly drawn) [Example 31-2, (5S)-5-cyclopropyl-5-(2-(5-(trifluoromethyl)isoindoline-2-carbonyl)butyl)imidazolidine-2,4-dione] | – | 33 | – |
| O=C1NC(=O)C(CCC(=O)N2Cc3ccc(C(F)(F)F)cc3C2)(c2nccs2)N1 (centres unmarked) [Example 43, 5-(3-oxo-3-(5-(trifluoromethyl)isoindolin-2-yl)propyl)-5-(thiazol-2-yl)imidazolidine-2,4-dione] | 250 | – | 150 |
| O=C1NC(=O)C(CCC(=O)N2Cc3ccc(C(F)(F)F)cc3C2)(c2ccccn2)N1 (centres unmarked) [Example 60, 5-(3-oxo-3-(5-(trifluoromethyl)isoindolin-2-yl)propyl)-5-(pyridin-2-yl)imidazolidine-2,4-dione] | 220 | – | 170 |
| O=C1NC(=O)[C@](CCC(=O)N2Cc3ccc(CC(F)(F)F)cc3C2)(C2CC2)N1 [Example 72, (S)-5-cyclopropyl-5-(3-oxo-3-(5-(2,2,2-trifluoroethyl)isoindolin-2-yl)propyl)imidazolidine-2,4-dione] | 130 | – | 43 |
| Cn1ccc(C2(CCC(=O)N3Cc4cc(Cl)c(C(F)(F)F)cc4C3)NC(=O)NC2=O)n1 (centres unmarked) [Example 77, 5-(3-(5-chloro-6-(trifluoromethyl)isoindolin-2-yl)-3-oxopropyl)-5-(1-methyl-1H-pyrazol-3-yl)imidazolidine-2,4-dione] | 160 | – | 400 |
| CCn1ccnc1C1(CCC(=O)N2Cc3cc(Cl)c(C(F)(F)F)cc3C2)NC(=O)NC1=O (centres unmarked) [Example 82, 5-(3-(5-chloro-6-(trifluoromethyl)isoindolin-2-yl)-3-oxopropyl)-5-(1-ethyl-1H-imidazol-2-yl)imidazolidine-2,4-dione] | 25 | – | 80 |

Other lines, results leading:

| IC50 [1] [nM] | IC50 [2] [nM] | IC50 [3] [nM] | Structure (SMILES) |
| --- | --- | --- | --- |
| 190 | 860 | 91 | O=C1NC(=O)[C@](CCC(=O)N2Cc3ccc(Cl)cc3C2)(C2CC2)N1 [Example 2, (S)-5-(3-(5-chloroisoindolin-2-yl)-3-oxopropyl)-5-cyclopropylimidazolidine-2,4-dione] |
| 480 | 730 | 170 | O=C1NC(=O)[C@](CCC(=O)N2Cc3ccc(OC(F)(F)F)cc3C2)(C2CC2)N1 [Example 4, (S)-5-cyclopropyl-5-(3-oxo-3-(5-(trifluoromethoxy)isoindolin-2-yl)propyl)imidazolidine-2,4-dione] |
| 260 | – | 41 | O=C1NC(=O)[C@](CCC(=O)N2Cc3ccc(OC(F)F)cc3C2)(C2CC2)N1 [Example 10, (S)-5-cyclopropyl-5-(3-(5-(difluoromethoxy)isoindolin-2-yl)-3-oxopropyl)imidazolidine-2,4-dione] |
| 4000 | – | 1400 | O=C1NC(=O)[C@](CCC(=O)N2Cc3ccncc3C2)(C2CC2)N1 [Example 13, (S)-5-cyclopropyl-5-(3-(1,3-dihydro-2H-pyrrolo[3,4-c]pyridin-2-yl)-3-oxopropyl)imidazolidine-2,4-dione] |
| 6200 | – | 1700 | O=C1NC(=O)[C@](CCC(=O)N2Cc3cccc(F)c3C2)(C2CC2)N1 [Example 16, (S)-5-cyclopropyl-5-(3-(4-fluoroisoindolin-2-yl)-3-oxopropyl)imidazolidine-2,4-dione] |
| 370 | – | 310 | O=C1NC(=O)[C@](CCC(=O)N2Cc3ccc(F)cc3C2)(C2CC2)N1 [Example 17, (S)-5-cyclopropyl-5-(3-(5-fluoroisoindolin-2-yl)-3-oxopropyl)imidazolidine-2,4-dione] |
| 330 | – | 260 | O=C1NC(=O)[C@](CCC(=O)N2Cc3cc(F)c(F)cc3C2)(C2CC2)N1 [Example 19, (S)-5-cyclopropyl-5-(3-(5,6-difluoroisoindolin-2-yl)-3-oxopropyl)imidazolidine-2,4-dione] |
| 220 | – | 120 | O=C1NC(=O)[C@](CCC(=O)N2Cc3cc(Cl)c([N+](=O)[O-])cc3C2)(C2CC2)N1 [Example 50, (S)-5-(3-(5-chloro-6-nitroisoindolin-2-yl)-3-oxopropyl)-5-cyclopropylimidazolidine-2,4-dione] |
| 170 | – | 240 | O=C1NC(=O)[C@](CCC(=O)N2Cc3cc(Cl)c(I)cc3C2)(C2CC2)N1 [Example 53, (S)-5-(3-(5-chloro-6-iodoisoindolin-2-yl)-3-oxopropyl)-5-cyclopropylimidazolidine-2,4-dione] |
| 100 | – | 56 | O=C1NC(=O)[C@](CCC(=O)N2Cc3cc(F)c(C(F)F)cc3C2)(C2CC2)N1 [Example 74, (S)-5-cyclopropyl-5-(3-(5-(difluoromethyl)-6-fluoroisoindolin-2-yl)-3-oxopropyl)imidazolidine-2,4-dione] |

Source: patent US20240299360A1, “ADAMTS INHIBITORS, PREPARATION METHODS AND MEDICINAL USES THEREOF” (Jiangsu Hengrui Pharmaceuticals Co., Ltd., priority 2020, published 2024)
